Source: patent publication US11608330B2, “Methylamine derivatives as lysysl oxidase inhibitors for the treatment of cancer” (The Institute of Cancer Research: Royal Cancer Hospital, priority 2016, dated 2023)

Tests used:
[1] = test system: TGF beta signalling (pSMAD2); format: cell-based
[2] = test system: MATN2 in MDA-MB-231 cells; assay: MATN2 level in MDA-MB-231 cells; format: cell-based, human; conditions: at a much higher concentration
Protocol: Proteins were extracted from cultured cells using cell lysis buffer (Cell Signalling Technology) with the addition of protease and phosphatase inhibitor cocktails (Pierce). Protein concentrations were measured using Pierce 660 nm protein assay reagent and SpectaMax M5 plate reader. […] Separated proteins were transferred to nitrocellulose membranes using a Trans-Blot turbo transfer system (Bio-Rad). Following blocking with Odyssey blocking buffer (Li—COR), membranes were incubated with two primary antibodies of different species at 4° C. over night. Corresponding fluorescence secondary antibodies (Li—COR) of different excitation and emission wavelengths were used to visualize the protein of interest on an Odyssey CLx infrared imaging system (Li—COR). Quantification of band fluorescent intensity was achieved using Li-COR ImageStudio. The following primary antibodies were used, anti-LOX (Sigma), anti-human MATN2 (R&D), anti-EGFR and anti-pY1068EGFR (Cell Signalling Technology), and anti-GAPDH (Millipore).

With N#CCCN [BAPN, beta-aminopropionitrile] the “TGF beta signalling as indicated by pSMAD2” value [1] was “increased TGF beta signalling” and the “reduction of MATN2” value [2] was “same effect”.
